Experimental data as given in patent US20250214896A1, “THIOL / SULFIDE CONTAINING CONCRETE COMPOSITION” (Yarmouk University, priority 2024, published 2025).

Legend:
physchem = assay: physchem
Excerpt: The reduction attributes of these compounds are subject to pH conditions, specifically, in the alkaline media of the cement mixture where the pH is around 12.

[1] = Dimerization of thiol monomers under oxidizing conditions, evaluated by reverse-phase HPLC; assay type: physicochemical; settings: about 0.56 M thiol, 10% NaOH, 3.0% hydrogen peroxide
Method: In this example, reference will be made to FIGS. 1 and 2. In this example, the role of thiol group was evaluated by oxidizing the monomers generating a dimer. About 10% by volume aqueous NaOH solution was added to about 0.56 M of mercapto (thiol) series (cysteine, cysteine methyl ester, beta-mercaptoethanol, and dithiothreitol), then a […] step was performed using about 3.0% by volume aqueous solution of hydrogen peroxide. Subsequently, centrifugation was performed at about 3000 rpm for about 5 minutes, then the supernatant was discarded and the pellets were recrystallized followed by rinsing with a few drops of cold water.
The dimerization process was evaluated using reverse-phase HPLC. For the analysis, about 5 μL injection volume was used. The mobile phase consisted of a mixture of acetonitrile and water in a ratio of about 65:35. […] Two distinct peaks were identified at distinct retention times.
The modification of the carboxylic group to a methyl ester increased the acidity of the ammonium protons relative to the thiol protons. […] The inhibitory effect of the ester group on disulfide bond formation was attributed to the presence of the methyl ester group in cysteine methyl ester.

OCC(S)CS (stereo not drawn) [2,3-disulfanylpropan-1-ol]
pKa (physchem; pKa of the OH): 15.8 | pKa (physchem; pKa of the primary SH): 8.95 | pKa (physchem; pKa of the secondary SH): 8.05

O[C@H](CS)[C@H](O)CS (racemic) [dithiothreitol]
pKa (physchem; pKa of the first SH): 8.12 | pKa (physchem; pKa of the second SH): 8.72

N[C@@H](CS)C(=O)O [cysteine]
pKa (physchem; pKa of the COOH): 2.35 | pKa (physchem; pKa of the NH2): 9.54 | pKa (physchem; pKa of the SH): 6.61 | dimer (disulfide) formation on oxidation [1]: successful formation of cysteine dimer

COC(=O)[C@@H](N)CS [cysteine methyl ester]
pKa (physchem): 6.86 | pKa (physchem; pKa of the NH2): 7.93 | dimer (disulfide) formation on oxidation [1]: unable to form a dimer

OCC(O)C(S)CS (stereo not drawn) [3,4-disulfanylbutane-1,2-diol, 3,4-disulfanyl-butane-1,2-diol]
pKa (physchem; pKa of the primary OH): 15.8 | pKa (physchem; pKa of the primary SH): 8.93 | pKa (physchem; pKa of the secondary OH): 14.3 | pKa (physchem; pKa of the secondary SH): 7.98

β-mercapto ethanol [β-mercaptoethanol]
pKa of the OH (physchem): 16.25 | pKa of the SH (physchem): 8.51
